Laboratory results as given in patent US20100184809A1, “Heterocyclic FXR Binding Compounds” (PHENEX PHARMACEUTICALS AG, priority 2006, published 2010).

What follows are molecules tested against T1, human FXRalpha ligand binding domain (LBD) (Homo sapiens, UniProt Q96RI1) (assay: FRET activity assay (ligand mediated cofactor peptide interaction, LANCE)). Settings: GST-FXR-LBD / biotinylated SRC-1 peptide (676-700).
T1 construct: made in house; host or cells: E. coli BL21(DE3), vector pDEST15
T1 sequence (Q96RI1 187-472 isoform Q96RI1-2): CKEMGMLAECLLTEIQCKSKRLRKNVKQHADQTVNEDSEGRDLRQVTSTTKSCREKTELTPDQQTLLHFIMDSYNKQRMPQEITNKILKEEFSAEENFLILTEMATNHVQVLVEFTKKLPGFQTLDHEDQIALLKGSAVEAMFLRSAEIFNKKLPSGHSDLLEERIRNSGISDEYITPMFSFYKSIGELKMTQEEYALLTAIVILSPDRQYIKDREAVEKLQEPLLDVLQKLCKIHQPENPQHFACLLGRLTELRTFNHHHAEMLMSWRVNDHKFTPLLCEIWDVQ
Assay type: biochemical
Procedure: Determination of a ligand mediated cofactor peptide interaction to quantify ligand binding to the nuclear receptor Farnesoid X Receptor (FXR) was performed as follows:
Preparation of human farnesoid X receptor (FXR) alpha ligand binding domain: The human FXRalpha ligand binding domain (LBD) was expressed in E. coli strain BL21(DE3) as an N-terminally glutathione-[…] (GST) tagged fusion protein. The DNA encoding the FXR ligand binding domain was cloned into vector pDEST15 (Invitrogen). Expression was under control of an IPTG inducible T7 promoter. The amino acid boundaries of the ligand binding domain were amino acids 187-472 of Database entry NM_005123 (RefSeq). Expression and purification of the FXR-LBD: An overnight preculture of a transformed E. coli strain was diluted 1:20 in LB-Ampicillin medium and grown at 30° C. to an optical density of OD600=0.4-0.6. Gene expression was then induced by addition of 0.5 mM IPTG. Cells were incubated an additional 6 h at 30° C., 180 rpm. Cells were collected by centrifugation (7000×g, 7 min, room temperature). Per liter of original cell culture, cells were resuspended in 10 ml lysis buffer (50 mM Glucose, 50 mM Tris pH 7.9, 1 mM EDTA and 4 mg/ml lysozyme) and left on ice for 30 min. Cells were then subjected to sonication and cell debris removed via centrifugation (22000×g, 30 min, 4° C.). Per 10 ml of supernatant 0.5 ml prewashed Glutathione 4B sepharose slurry (Qiagen) was added and the suspension kept slowly rotating for 1 h at 4° C. Glutathione 4B sepharose beads were pelleted by centrifugation (2000 g, 15 sec, 4° C.) and washed twice in wash buffer (25 mM Tris, 50 mM KCl, 4 mM MgCl2 and 1M NaCl). The pellet was resuspended in 3 ml elution buffer per liter of original culture (elution buffer: 20 mM Tris, 60 mM KCl, 5 mM MgCl2 and 80 mM glutathione added immediately prior to use as powder). The suspension was left rotating for 15 min at 4° C., the beads pelleted and eluted again with half the volume of elution buffer than the first time. The eluates were pooled and dialysed overnight in 20 mM Hepes buffer (pH 7.5) containing 60 mM KCl, 5 mM MgCl2 as well as 1 mM dithiothreitol and 10% (v/v) glycerol. The protein was analysed by SDS-Page.
The method measures the ability of putative ligands to modulate the interaction between the purified bacterial expressed FXR ligand binding domain (LBD) and a synthetic biotinylated peptide based on residues 676-700 of SRC-1 (LCD2, 676-700). The sequence of the peptide used was B-[…]-COOH where the N-terminus was biotinylated (B). The ligand binding domain (LBD) of FXR was expressed as fusion protein with GST in BL-21 cells using the vector pDEST15. Cells were lysed by sonication, and the fusion proteins purified over glutathione sepharose (Pharmacia) according to the manufacturers instructions. For screening of compounds for their influence on the FXR-peptide interaction, the Perkin Elmer LANCE technology was applied. This method relies on the binding dependent energy transfer from a donor to an acceptor fluorophor attached to the binding partner of interest. For ease of handling and reduction of background from compound fluorescence LANCE technology makes use of generic fluorophore labels and time resolved detection Assays were done in a final volume of 2 5 μl in a 384 well plate, in a Tris-based buffer (20 mM Tris-HCl pH 7,5; 60 mM KCl, 5 mM MgCl2; 35 ng/μl BSA), containing 20-60 ng/well recombinantly expressed FXR-LBD fused to GST, 200-600 nM N-terminally biotinylated peptide, representing SRC1 aminoacids 676-700, 200 ng/well Streptavidin-xIAPC conjugate(Prozyme) and 6-10 ng/well Eu W1024 antiGST (Perkin Elmer). DMSO content of the samples was kept at 1%. After generation of the assay mix and diluting the potentially FXR modulating ligands, the assay was equilibrated for one hour in the dark at room temperature in FIA-plates black 384 well (Greiner). […]
With `CC(C)c1onc(-c2c(Cl)cccc2Cl)c1COc1ccc(N(C)Cc2ccc(C(=O)NCCN(C)C)cc2)c(C(F)(F)F)n1` [Example 37, 4-(((6-((3-(2,6-Dichlorophenyl)-5-isopropylisoxazol-4-yl)methoxy)-2-(trifluoromethyl)pyridin-3-yl)(methyl)amino)methyl)-N-(2-(dimethylamino)ethyl)benzamide] the IC50 was ≤ 1 µM.
For `Cc1cc(OCc2c(-c3c(Cl)cccc3Cl)noc2C(C)C)ncc1NC(=O)c1ccc(C(=O)O)cc1` [Example 14], the IC50 was ≤ 1 µM.
For `CC(C)c1onc(-c2c(Cl)cccc2Cl)c1COc1ccc(N(C)Cc2ccc(C(=O)OCCO)cc2)c(C(F)(F)F)n1` [Example 33, 2-Hydroxyethyl 4-(((6-((3-(2,6-dichlorophenyl)-5-isopropylisoxazol-4-yl)methoxy)-2-(trifluoromethyl)pyridin-3-yl)(methyl)amino)methyl)benzoate], the IC50 was ≤ 1 µM.
`CC(C)c1onc(-c2c(Cl)cccc2Cl)c1COc1cnc(N(C)Cc2ccc(C(=O)O)cc2)c(Cl)c1` [Example 31, 4-(((3-Chloro-5-((3-(2,6-dichlorophenyl)-5-isopropylisoxazol-4-yl)methoxy)pyridin-2-yl)(methyl)amino)methyl)benzoic acid] was tested, and the IC50 was ≤ 1 µM.
`COc1nc(OCc2c(-c3c(Cl)cccc3Cl)noc2C(C)C)ccc1NS(=O)(=O)c1ccc(C(=O)O)cc1` [Example 12, 4-{6[3-(2,6-dichloro-phenyl)-5-isopropyl-isoxazol-4-ylmethoxy]-2-methoxy-pyridin-3-ylsulfamoyl}-benzoic acid] was tested, and the IC50 was ≤ 1 µM.
Work on `COC(=O)c1cccc(C(=O)Nc2ccc(OCc3c(-c4c(Cl)cccc4Cl)noc3C(C)C)nc2C(F)(F)F)c1` [Example 20, N-(6-[3-(2,6-Dichloro-phenyl)-5-isopropyl-isoxazol-4-ylmethoxy]-2-trifluoromethyl-pyridin-3-yl)-isophthalamic acid methyl ester] yielded an IC50 of 1 to 10 µM.
In the case of `CC(C)c1onc(-c2c(Cl)cccc2Cl)c1COc1ccc(N(C)C(=O)c2cccc(C(=O)O)c2)c(C(F)(F)F)n1` [Example 22, 3-((6-((3-(2,6-Dichlorophenyl)-5-isopropylisoxazol-4-yl)methoxy)-2-(trifluoromethyl)pyridin-3-yl)(methyl)carbamoyl)benzoic acid], the IC50 is reported as ≤ 1 µM.
With `COc1nc(OCc2c(-c3c(Cl)cccc3Cl)noc2C(C)C)ccc1NC(=O)c1ccc(C(=O)O)cc1` [Example 10, N-{6-[3-(2,6-dichloro-phenyl)-5-isopropyl-isoxazol-4-ylmethoxy]-2-methoxy-pyridin-3-yl}-terephthalamic acid] the IC50 was ≤ 1 µM.
In the case of `COC(=O)c1ccc(C(=O)Nc2ccc(OCc3c(-c4c(Cl)cccc4Cl)noc3C(C)C)nc2C(F)(F)F)cc1` [Example 5, N-{6-[3-(2,6-dichloro-phenyl)-5-isopropyl-isoxazol-4-ylmethoxy]-2-trifluoromethyl-pyridin-3-yl}-terephthalamic acid methyl ester], the IC50 is reported as 1 to 10 µM.
For `CC(C)c1onc(-c2c(Cl)cccc2Cl)c1COc1ccc(N(C)Cc2ccc(C(=O)NCCO)cc2)c(C(F)(F)F)n1` [Example 36, 4-(((6-((3-(2,6-Dichlorophenyl)-5-isopropylisoxazol-4-yl)methoxy)-2-(trifluoromethyl)pyridin-3-yl)(methyl)amino)methyl)-N-(2-hydroxyethyl)benzamide], the IC50 was ≤ 1 µM.
`Cc1onc(-c2c(Cl)cccc2Cl)c1COc1ccc(NC(=O)c2ccc(C(=O)O)cc2)cn1` [Example 16, 4-(6-((3-(2,6-dichlorophenyl)-5-methylisoxazol-4-yl)methoxy)pyridin-3-ylcarbamoyl)benzoic acid] was tested, and the IC50 was 1 to 10 µM.
`CC(C)c1onc(-c2c(Cl)cccc2Cl)c1COc1ccc(N(C)Cc2ccc(C(=O)NCC(O)CO)cc2)c(C(F)(F)F)n1` (stereo not drawn) [Example 35, 4-(((6-((3-(2,6-Dichlorophenyl)-5-isopropylisoxazol-4-yl)methoxy)-2-(trifluoromethyl)pyridin-3-yl)(methyl)amino)methyl)-N-(2,3-dihydroxypropyl)benzamide] was tested, and the IC50 was ≤ 1 µM.
`Cc1onc(-c2c(Cl)cccc2Cl)c1COc1ccc(NS(=O)(=O)c2cccc(C(=O)O)c2)cn1` [Example 17, 3-(N-(6-((3-(2,6-dichlorophenyl)-5-methylisoxazol-4-yl)methoxy)pyridin-3-yl)sulfamoyl)benzoic acid] showed an IC50 of 1 to 10 µM.
`Cc1onc(-c2c(Cl)cccc2Cl)c1COc1ccc(NS(=O)(=O)c2ccc(C(=O)O)cc2)cn1` [Example 18, 4-(N-(6-((3-(2,6-dichlorophenyl)-5-methylisoxazol-4-yl)methoxy)pyridin-3-yl)sulfamoyl)benzoic acid] was tested, and the IC50 was 1 to 10 µM.
In the case of `Cc1nc(OCc2c(-c3c(Cl)cccc3Cl)noc2C(C)C)ccc1N(C)C(=O)c1ccc(C(=O)O)cc1` [Example 2, 4-((6-((3-(2,6-Dichlorophenyl)-5-isopropylisoxazol-4-yl)methoxy)-2-methylpyridin-3-yl)(methyl)carbamoyl)benzoic acid], the IC50 is reported as ≤ 1 µM.
With `CC(C)c1onc(-c2c(Cl)cccc2Cl)c1COc1ccc(N(C)Cc2ccc(C(=O)OCC(O)CO)cc2)c(C(F)(F)F)n1` (stereo not drawn) [Example 34, 2,3-Dihydroxypropyl 4-(((6-((3-(2,6-dichlorophenyl)-5-isopropylisoxazol-4-yl)methoxy)-2-(trifluoromethyl)pyridin-3-yl)(methyl)amino)methyl)benzoate] the IC50 was ≤ 1 µM.
`COc1nc(OCc2c(-c3c(Cl)cccc3Cl)noc2C(C)C)ccc1N(C)S(=O)(=O)c1ccc(C(=O)O)cc1` [Example 13, 4-({6-[3-(2,6-dichloro-phenyl)-5-isopropyl-isoxazol-4-ylmethoxy]-2-methoxy-pyridin-3-yl}-methyl-sulfamoyl)-benzoic acid] was tested, and the IC50 was ≤ 1 µM.
`Cc1nc(OCc2c(-c3c(Cl)cccc3Cl)noc2C(C)C)ccc1NC(=O)c1ccc(C(=O)O)cc1` [Example 1, N-{6[3-(2,6-dichloro-phenyl)-5-isopropyl-isoxazol-4-ylmethoxy]-2-methyl-pyridin-3-yl}-terephthalamic acid] was tested, and the IC50 was ≤ 1 µM.
Molecule `CC(C)c1onc(-c2c(Cl)cccc2Cl)c1COc1ccc(NS(=O)(=O)c2ccc(C(=O)O)cc2)c(C(F)(F)F)n1` [Example 8, 4-{6-[3-(2,6-dichloro-phenyl)-5-isopropyl-isoxazol-4-ylmethoxy]-2-trifluoromethyl-pyridin-3-ylsulfamoyl}-benzoic acid] has an IC50 of 1 to 10 µM.
`COc1nc(OCc2c(-c3c(Cl)cccc3Cl)noc2C(C)C)ccc1N(C)C(=O)c1ccc(C(=O)O)cc1` [Example 11, N-{6-[3-(2,6-dichloro-phenyl)-5-isopropyl-isoxazol-4-ylmethoxy]-2-methoxy-pyridin-3-yl}-N-methyl-terephthalamic acid] was tested, and the IC50 was 1 to 10 µM.
`CC(C)c1onc(-c2c(Cl)cccc2Cl)c1COc1ccc(N(C)S(=O)(=O)c2ccc(C(=O)O)cc2)c(C(F)(F)F)n1` [Example 9, 4({6-[3-(2,6-Dichloro-phenyl)-5-isopropyl-isoxazol-4-ylmethoxy]-2-trifluoromethyl-pyridin-3-yl}-methyl-sulfamoyl)-benzoic acid] was tested, and the IC50 was ≤ 1 µM.
